{
  "source": "patent US11590117B2",
  "about": "“Treatment of a hematologic malignancy with 2-(4-chlorophenyl)-n-((2-(2,6-dioxopiperidin-3-yl)-1-oxoisoindolin-5-yl)methyl)-2,2-difluoroacetamide” (priority 2016, dated 2023)",
  "experiment_in_all_cases": "IncuCyte Kinetic Caspase-3/7 Apoptosis Assay",
  "format_in_all_cases": "cell-based",
  "key": {"F36-P": {"test_system": "F36-P", "settings": "Homo sapiens, read-out: Compound 1-induced Apoptosis EC50", "from_the_text": "(§1) Methods. Acute Myeloid Leukemia Cell Line Panel: Human AML cell lines, AML-193, F36-P, GDM-1, HL-60, HNT-34, Kasumi-1, Kasumi-3, KG-1, KG-1a, ML-2, MOLM-13, MUTZ-8, MV-4-11, NOMO-1, OCI-AML2, OCI-AML3, SIG-M5, TF-1, THP-1, and UT-7 were obtained from American Type Culture Collection (ATCC; Manassas, Va.) and Deutsche Sammlung von Mikroorganismen und Zellkulturen (DSMZ) (Germany) cell banks. The AML panel includes cell line(s) from each FAB classification (M0-M7) (Table 7).\n(§2) Cell Culture Conditions: Cell lines were maintained in growth media containing 20% fetal bovine serum (FBS) (Hyclone Cat no. SH30910.03, Lot no. AZF188864; Corning REFno. 35-010-CV, Lot no. 35010124) supplemented with or without 10 ng/mL human recombinant granulocyte-macrophage colony stimulating factor (Sigma-Aldrich Cat no. SRP3050) (Table 8). Medium was purchased from ATCC (Cat no. 30-2001, 30-2002, 30-2003, 30-2005) and Gibco (REF no. 12561-056). Human recombinant granulocyte macrophage colony stimulating factor (GM-CSF) was expressed in Escherichia coli. The cell doubling times for each cell line were provided by ATCC and DSMZ. Cells were maintained in humidified incubators at 5% carbon dioxide (CO2). All cell lines were acclimated to Eagle's minimal essential medium (EMEM)+20% FBS with or without GM-CSF over 2 to 4 weeks prior to live cell imaging using IncuCyte Zoom (Essen Biosciences). The use of EMEM was necessary to eliminate background fluorescence caused by riboflavin in most media.\n(§3) Incubation of Cell Cultures with Compound 1: Compound 1 was provided for studies by Celgene chemistry group at a stock concentration of 30 mM in 20 μL dimethyl sulfoxide (DMSO) frozen. Costar 96-well cell culture plates (Corning Cat no. 3595) were coated with 100 μL of 10 µg/mL fibronectin (Sigma-Aldrich Cat no. F1141) for 4 hours at 37° C. and immediately used or refrigerated overnight for later use. Cells (3000 to 6000 cells) were plated in growth medi in fibronectin-coated 96-well plates and incubated for a minimum of a few hours to overnight. Cells were incubated with a 12-point concentration response in triplicate with Compound 1 ([…]) including DMSO and Media controls. A 3-fold serial dilution of Compound 1 starting from a concentration of 200 μM in 0.6% DMSO (diluted in Media) was performed. For most sensitive cell lines, a 3-fold serial dilution of Compound 1 starting from a concentration of 20 μM in 0.6% DMSO (diluted in media) was performed. A volume of 5 μL or 10 μL for each dilution was added to 100 μL or 200 μL cells, respectively (0.3% DMSO final) and incubated for live cell imaging.\n(§4) Live Cell Imaging on IncuCyte Zoom: Following incubation of cells with Compound 1, diluted Caspase 3/7 reagent (Essen Biosciences Cat no. 4440) is added to each well. The Caspase-3/7 reagent couples the activated caspase-3/7 recognition motif (DEVD) to NucView™488, a DNA intercalating dye. The cleavage of substrate by activated caspase-3/7 results in the release of the DNA dye and green fluorescent staining of nuclear DNA. This allows imaging of cells undergoing caspase-3/7 mediated apoptosis over time. Caspase-3/7 activation was quantified using the IncuCyte™ ZOOM basic analyzer. Red-labeled cell lines were also imaged over time using the IncuCyte™ ZOOM basic analyzer, for determination of both cell doubling time and Compound 1 effect on cell viability. Experiments were performed at least two times in each cell line.\n(§5) Next, a 4 parameter log-logistic model was used to determine relative EC50 at each time point by the ‘drm’ function from the R ‘drc’ package (Ritz C, Streibig J C. Bioassay Analysis using R. J. Statist. Software 2005; 12(5):1-22). Goodness of fit was measured by R squared (coefficient of determination or the amount of variation explained by the model fit) of ≥80%, and EC50 parameter was assessed by having a ratio of standard error to the parameter of ≤40%, and the presence of at least one concentration point above and below the reported EC50. […]"}, "HL-60": {"test_system": "HL-60", "settings": "Homo sapiens, read-out: Compound 1-induced Apoptosis EC50", "from_the_text": "as §1, §2, §3, §4, §5"}, "HNT-34": {"test_system": "HNT-34", "settings": "Homo sapiens, read-out: Compound 1-induced Apoptosis EC50", "from_the_text": "as §1, §2, §3, §4, §5"}, "KG-1a": {"test_system": "KG-1a", "settings": "Homo sapiens, read-out: Compound 1-induced Apoptosis EC50", "from_the_text": "as §1, §2, §3, §4, §5"}, "Kasumi-3": {"test_system": "Kasumi-3", "settings": "Homo sapiens, read-out: Compound 1-induced Apoptosis EC50", "from_the_text": "as §1, §2, §3, §4, §5"}, "ML-2": {"test_system": "ML-2", "settings": "Homo sapiens, read-out: Compound 1-induced Apoptosis EC50", "from_the_text": "as §1, §2, §3, §4, §5"}, "MOLM-13": {"test_system": "MOLM-13", "settings": "Homo sapiens, read-out: Compound 1-induced Apoptosis EC50", "from_the_text": "as §1, §2, §3, §4, §5"}, "Nomo-1": {"test_system": "Nomo-1", "settings": "Homo sapiens, read-out: Compound 1-induced Apoptosis EC50", "from_the_text": "as §1, §2, §3, §4, §5"}, "OCI-AML2": {"test_system": "OCI-AML2", "settings": "Homo sapiens, read-out: Compound 1-induced Apoptosis EC50", "from_the_text": "as §1, §2, §3, §4, §5"}, "SIG-M5": {"test_system": "SIG-M5", "settings": "Homo sapiens, read-out: Compound 1-induced Apoptosis EC50", "from_the_text": "as §1, §2, §3, §4, §5"}, "THP-1": {"test_system": "THP-1", "settings": "Homo sapiens", "from_the_text": "as §1, §2, §3, §4, §5"}, "UT-7": {"test_system": "UT-7", "settings": "Homo sapiens, read-out: Compound 1-induced Apoptosis EC50", "from_the_text": "as §1, §2, §3, §4, §5"}},
  "note": "Where two headings read alike, the source gives them in different places.",
  "data": [
    {"smiles": "O=C1CCC(N2Cc3cc(CNC(=O)C(F)(F)c4ccc(Cl)cc4)ccc3C2=O)C(=O)N1", "note": "(centres unmarked) [Compound 1, 2-(4-chlorophenyl)-N-((2-(2,6-dioxopiperidin-3-yl)-1-oxoisoindolin-5-yl)methyl)-2,2-difluoroacetamide]", "values": [
      {"measurement": "EC50", "setting": "F36-P; 48 hr", "value": 335, "unit": "nM"},
      {"measurement": "EC50", "setting": "F36-P; 72 hr", "value": 252, "unit": "nM"},
      {"measurement": "EC50", "setting": "F36-P; 96 hr", "value": 229, "unit": "nM"},
      {"measurement": "EC50", "setting": "HL-60; 24 hr", "value": 73, "unit": "nM"},
      {"measurement": "EC50", "setting": "HL-60; 48 hr", "value": 15, "unit": "nM"},
      {"measurement": "EC50", "setting": "HL-60; 72 hr", "value": 8, "unit": "nM"},
      {"measurement": "EC50", "setting": "HNT-34; 24 hr", "value": 7, "unit": "nM"},
      {"measurement": "EC50", "setting": "HNT-34; 48 hr", "value": 4, "unit": "nM"},
      {"measurement": "EC50", "setting": "HNT-34; 96 hr", "value": 2, "unit": "nM"},
      {"measurement": "EC50", "setting": "KG-1a; 24 hr", "value": 226, "unit": "nM"},
      {"measurement": "EC50", "setting": "KG-1a; 48 hr", "value": 145, "unit": "nM"},
      {"measurement": "EC50", "setting": "KG-1a; 72 hr", "value": 186, "unit": "nM"},
      {"measurement": "EC50", "setting": "Kasumi-3; 12 hr", "value": 54, "unit": "nM"},
      {"measurement": "EC50", "setting": "Kasumi-3; 24 hr", "value": 10, "unit": "nM"},
      {"measurement": "EC50", "setting": "Kasumi-3; 48 hr", "value": 4, "unit": "nM"},
      {"measurement": "EC50", "setting": "Kasumi-3; 72 hr", "value": 3, "unit": "nM"},
      {"measurement": "EC50", "setting": "Kasumi-3; 96 hr", "value": 1, "unit": "nM"},
      {"measurement": "EC50", "setting": "ML-2; 12 hr", "value": 179, "unit": "nM"},
      {"measurement": "EC50", "setting": "ML-2; 24 hr", "value": 62, "unit": "nM"},
      {"measurement": "EC50", "setting": "ML-2; 48 hr", "value": 31, "unit": "nM"},
      {"measurement": "EC50", "setting": "ML-2; 72 hr", "value": 21, "unit": "nM"},
      {"measurement": "EC50", "setting": "ML-2; 96 hr", "value": 25, "unit": "nM"},
      {"measurement": "EC50", "setting": "MOLM-13; 24 hr", "value": 916, "unit": "nM"},
      {"measurement": "EC50", "setting": "MOLM-13; 48 hr", "value": 368, "unit": "nM"},
      {"measurement": "EC50", "setting": "MOLM-13; 72 hr", "value": 156, "unit": "nM"},
      {"measurement": "EC50", "setting": "MOLM-13; 96 hr", "value": 79, "unit": "nM"},
      {"measurement": "EC50", "setting": "Nomo-1; 24 hr", "value": 63, "unit": "nM"},
      {"measurement": "EC50", "setting": "Nomo-1; 48 hr", "value": 133, "unit": "nM"},
      {"measurement": "EC50", "setting": "Nomo-1; 72 hr", "value": 84, "unit": "nM"},
      {"measurement": "EC50", "setting": "Nomo-1; 96 hr", "value": 66, "unit": "nM"},
      {"measurement": "EC50", "setting": "OCI-AML2; 24 hr", "value": 436, "unit": "nM"},
      {"measurement": "EC50", "setting": "OCI-AML2; 48 hr", "value": 81, "unit": "nM"},
      {"measurement": "EC50", "setting": "OCI-AML2; 72 hr", "value": 41, "unit": "nM"},
      {"measurement": "EC50", "setting": "OCI-AML2; 96 hr", "value": 38, "unit": "nM"},
      {"measurement": "EC50", "setting": "SIG-M5; 24 hr", "value": 148, "unit": "nM"},
      {"measurement": "EC50", "setting": "SIG-M5; 48 hr", "value": 97, "unit": "nM"},
      {"measurement": "EC50", "setting": "SIG-M5; 72 hr", "value": 50, "unit": "nM"},
      {"measurement": "EC50", "setting": "SIG-M5; 96 hr", "value": 33, "unit": "nM"},
      {"measurement": "EC50", "setting": "THP-1; 48 hours, read-out: apoptosis EC50", "value": "> 10000", "unit": "nM"},
      {"measurement": "EC50", "setting": "THP-1; 48 hours, read-out: apoptosis EC50 48hr", "value": "> 10000", "unit": "nM"},
      {"measurement": "EC50", "setting": "THP-1; all time points, read-out: apoptosis EC50", "value": "> 10000", "unit": "nM"},
      {"measurement": "EC50", "setting": "UT-7; UT7, 48 hr", "value": 231, "unit": "nM"},
      {"measurement": "EC50", "setting": "UT-7; UT7, 72 hr", "value": 218, "unit": "nM"},
      {"measurement": "EC50", "setting": "UT-7; UT7, 96 hr", "value": 168, "unit": "nM"}
    ]}
  ]
}
